Measurements: paper PMC9981942, “Pharmacokinetics and tissue distribution of Ramulus Mori (Sangzhi) alkaloids in rats and its effects on liver enzyme activity” (Frontiers in Pharmacology, 2023)
Blank lines part the entries; values can stand above or below the molecule they belong to.

Key:
Assay in all cases: in vitro
[1] = target: T1, CYP1A2 (Homo sapiens, UniProt P05177); conditions: microsomes, pH 7.4
T1 sequence (P05177 1-516): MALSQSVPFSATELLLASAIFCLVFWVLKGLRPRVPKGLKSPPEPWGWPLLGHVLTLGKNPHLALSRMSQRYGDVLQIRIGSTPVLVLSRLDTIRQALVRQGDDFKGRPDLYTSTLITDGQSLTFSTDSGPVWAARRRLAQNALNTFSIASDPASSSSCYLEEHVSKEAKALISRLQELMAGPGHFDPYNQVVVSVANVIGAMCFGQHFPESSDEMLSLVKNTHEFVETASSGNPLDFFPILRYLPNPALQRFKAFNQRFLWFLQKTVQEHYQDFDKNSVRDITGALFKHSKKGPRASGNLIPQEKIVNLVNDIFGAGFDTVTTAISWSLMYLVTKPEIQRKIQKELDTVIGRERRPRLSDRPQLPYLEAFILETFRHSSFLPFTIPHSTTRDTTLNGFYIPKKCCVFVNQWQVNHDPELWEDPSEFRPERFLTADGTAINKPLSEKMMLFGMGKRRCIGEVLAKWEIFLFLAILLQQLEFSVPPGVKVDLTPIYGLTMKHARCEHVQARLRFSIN

[2] = target: T2, CYP1A2 (Rattus norvegicus, UniProt P04799); conditions: liver microsomes, pH 7.4, probe phenacetin (50 μM)
T2 sequence (P04799 1-513): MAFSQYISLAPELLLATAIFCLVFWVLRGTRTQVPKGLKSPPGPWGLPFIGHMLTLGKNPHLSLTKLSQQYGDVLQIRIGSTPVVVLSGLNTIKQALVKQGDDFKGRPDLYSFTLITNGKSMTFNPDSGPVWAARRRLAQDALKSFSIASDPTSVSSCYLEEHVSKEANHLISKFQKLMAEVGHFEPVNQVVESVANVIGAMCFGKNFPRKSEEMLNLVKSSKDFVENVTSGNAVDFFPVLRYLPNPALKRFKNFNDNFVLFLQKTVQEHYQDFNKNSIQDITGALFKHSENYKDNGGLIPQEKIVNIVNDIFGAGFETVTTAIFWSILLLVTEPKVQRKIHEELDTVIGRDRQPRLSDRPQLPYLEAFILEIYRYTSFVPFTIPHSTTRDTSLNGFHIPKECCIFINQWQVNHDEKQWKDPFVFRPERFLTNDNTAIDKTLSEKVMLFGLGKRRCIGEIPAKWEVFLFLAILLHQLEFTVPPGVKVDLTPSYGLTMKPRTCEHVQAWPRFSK

[3] = target: T3, CYP3A2 (Rattus norvegicus, UniProt P05183); conditions: liver microsomes, pH 7.4, probe midazolam (5 μM)
T3 sequence (P05183 1-504): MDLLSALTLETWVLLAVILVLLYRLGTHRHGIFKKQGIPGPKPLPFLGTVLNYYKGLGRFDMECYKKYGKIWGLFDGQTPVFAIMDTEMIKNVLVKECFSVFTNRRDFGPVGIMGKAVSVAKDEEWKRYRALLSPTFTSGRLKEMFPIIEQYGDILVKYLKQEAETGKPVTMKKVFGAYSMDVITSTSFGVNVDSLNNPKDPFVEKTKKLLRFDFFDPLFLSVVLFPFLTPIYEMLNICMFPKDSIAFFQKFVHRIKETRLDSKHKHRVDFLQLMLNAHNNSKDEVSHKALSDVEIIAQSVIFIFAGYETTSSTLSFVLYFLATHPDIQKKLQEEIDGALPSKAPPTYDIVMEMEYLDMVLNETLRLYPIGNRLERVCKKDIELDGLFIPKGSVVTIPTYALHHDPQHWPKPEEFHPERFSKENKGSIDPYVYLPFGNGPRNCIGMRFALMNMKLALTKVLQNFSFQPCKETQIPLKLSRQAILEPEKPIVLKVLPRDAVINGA

[4] = target: T4, CYP2C6 (Rattus norvegicus, UniProt P05178); conditions: liver microsomes, pH 7.4, probe diclofenac sodium (20 μM)
T4 sequence (P05178 1-490): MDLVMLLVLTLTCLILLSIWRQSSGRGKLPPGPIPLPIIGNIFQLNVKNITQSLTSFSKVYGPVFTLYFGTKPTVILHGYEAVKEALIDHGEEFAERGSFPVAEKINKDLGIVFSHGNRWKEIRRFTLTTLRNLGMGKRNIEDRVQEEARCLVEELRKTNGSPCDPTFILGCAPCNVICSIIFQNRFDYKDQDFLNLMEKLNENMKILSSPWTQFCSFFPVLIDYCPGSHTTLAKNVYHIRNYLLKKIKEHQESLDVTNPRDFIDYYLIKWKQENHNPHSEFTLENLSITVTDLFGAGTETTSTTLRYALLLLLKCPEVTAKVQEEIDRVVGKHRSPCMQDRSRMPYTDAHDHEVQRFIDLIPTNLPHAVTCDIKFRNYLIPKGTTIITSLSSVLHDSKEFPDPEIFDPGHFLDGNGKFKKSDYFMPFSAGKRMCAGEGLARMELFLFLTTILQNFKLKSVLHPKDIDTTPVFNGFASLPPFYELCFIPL

Structure (SMILES): Cc1nc2c([nH]1)c(=O)n(C)c(=O)n2Cc1ccco1 [furafylline]
inhibition at 30 min, 10 μM [1]: 71.8%
inhibition at 30 min, 50 μM [2]: 66.3%

inhibition at 5 min, 1 μM [3]: 76.4%
Structure (SMILES): CC(=O)N1CCN(c2ccc(OCC3COC(Cn4ccnc4)(c4ccc(Cl)cc4Cl)O3)cc2)CC1 (stereo not shown) [ketoconazole]

inhibition at 10 min, 50 μM [4]: 88%
Structure (SMILES): Nc1ccc(S(=O)(=O)Nc2ccnn2-c2ccccc2)cc1 [sulfaphenazole]
